Measurements taken from patent US10328075B2, “Method of treatment and compounds for use therein” (Baker Heart and Diabetes Institute, priority 2015, dated 2019).
No end group written: not given here.

Assays:
Assay type in all cases: in vivo, mouse
[1] = Plasma levels and pharmacokinetics in mice; settings: for Tmax / half-life: mouse, in vivo, Table 9, mice
[2] = tested on: myocardial I-R injury in C57BL/6 mice; assay: Myocardial I-R in mice: cardiac fibrosis, apoptosis and remodelling after 7 days reperfusion; settings: for Effect on cardiac remodeling 7 days post I-R: 50 mg/kg i.p.
Description: (§1) Male C57BL/6 mice were breed and housed in the AMREP Animal Centre and maintained under a 12 h light/dark cycle. After anaesthesia (i.p., ketamine 80 mg/kg, xylazine 20 mg/kg and atropine 1.2 mg/kg), mice were randomly assigned to 24 h, 48 h and 7 days reperfusion groups and underwent reversible left arterial descending (LAD) ligation as described (Gao XM, 2011; JMCC, 50; Gao XM, 2000, JMCC). Following sedation, mice were intubated and ventilated (Harvard apparatus, MA, USA) with room air mixed with oxygen (tidal volume 0.25 mL, 150 breath/min), and placed on a heating pad. A left thoractomy will be made via the ˜third intercostal space, where the beating heart was located.
(§2) The LAD was reversibly ligated using 7-0 silk suture with a slipknot enclosing two releasing rings. Regional ischaemia was confirmed by pale colour of the ligated area. Air was then evacuated from the chest, the cavity was closed and normal respiration was restored. After 40-60 min of ischaemia, blood flow through the left coronary artery was re-established by releasing the slipknot. Sham-operated mice underwent identical surgical procedures except the coronary arteries were not ligated. Three cohorts of mice were scheduled. Cohort 1 was subjected to 40 min ischaemic-24 h reperfusion for the assessment of cardiac necrosis. Cohort 2 was subjected to 60 min occlusion with 48 h reperfusion for the quantification of cardiac and systemic inflammation. The last cohort was subjected to 7 d reperfusion and early cardiac fibrosis was assessed.
(§3) Treatment with study drugs: Animals were randomly assigned to different groups and all treatments were administrated 5 min prior to reperfusion of the LAD. The peptide Ac2-26 (1 mg kg^−1) (Chemieliva, Chongqing, China) and its vehicle (10% dimethyl sulfoxide (DMSO) in saline) were intravenously (i.v.) injected via the tail vein. […] Mice then received drug or vehicle injections daily until the experimental endpoint. The two different vehicles groups reflect different study drug solubility and administration routes.
Assessment of cardiac histology and fibrosis: LV hearts fixed in NBF after 40 min ischaema and 7 d reperfusion were embedded in paraffin by the Alfred Pathology Service (Melbourne, Australia) and sectioned at 4 μm with a Leica 2135 microtome (Leica Microsystems, Wetzlar, Germany). Sections were stained with haematoxylin and eosin (H&E) for assessment of myocardial morphology, or picrosirius red (0.1%, Fluka, Bucks, Switzerland; pH2) for cardiac collagen deposition. Images were taken at 1.25× to capture the whole LV. To examine the local infarct area, images were collected at 20× using the microscope (Olympus BX61, Olympus Inc., Ontario, Canada) and QCapture Pro software (version 5.1 for Windows, Media Cybernetic Inc., Maryland, USA). H&E images were scored blindly in random order on a scale of 1 to 5, based on intensity of blue staining of nuclei (1=least, 5=most, classified by independent observer). The area of picrosirius red staining (% LV area) was quantitatively measured using Image-Pro Plus software (Media Cybernetic Inc., Maryland, USA) for sets of LV slides from 48 h reperfusion and 7 d reperfusion study.
Animal Surgery: Adult C57BL/6 mice were randomly assigned to myocardial ischemia-reperfusion (I-R) injury or sham in vivo. Anesthetized mice (ketamine 80 mg/kg, xylazine 20 mg/kg and atropine 1.2 mg/kg, KXA, i.p.) underwent reversible left arterial descending (LAD) ligation as described (Gao et al. 2000 & Gao et al. 2011). Following sedation, mice were intubated and ventilated (Harvard apparatus, MA, USA) with room air mixed with oxygen (tidal volume 0.25 mL, 150 breaths/min), and placed on a heating pad. A left thoractomy was be made around the third intercostal space, where the beating heart was located. The LAD was reversibly ligated using 7-0 silk suture with a slipknot enclosing two releasing rings. Regional ischemia was confirmed by pale color of the ligated area. […]

[3] = tested on: myocardial I-R injury in C57BL/6 mice; assay: Myocardial I-R in mice: cardiac inflammation after 48 h reperfusion; settings: for Effect on LV injury score / cell infiltration (H&E) / Effect on LV macrophage (CD68+) signal / Effect on LV neutrophil (Ly-6B.2) signal (in words) / Reduction of LV neutrophil content (Ly-6B.2): 60 min ischaemia, 48 h reperfusion
Description: as §1, §2, §3
Assessment of cardiac inflammation: LV tissue embedded in OCT compound following 60 min ischaemia and 48 h reperfusion were sectioned at 6 μm for immunofluorescent analysis. Sections were pre-incubated with 4% paraformaidehyde for 20 min and 10% normal goat serum for a further 30 min. Sections were then incubated at room temperature (RT) with either CD68+ primary antibody or Ly-6B.2 primary antibody (1:200, ABD Serotec, Raleigh, USA) for 1 h, followed 30 min incubation with the Alexa Fluor 546 secondary antibody (1:200, Invitrogen, Carlsbad, USA), to detect cardiac macrophage and neutrophil infiltration, respectively. Finally, sections were incubated with 0.001% Hoechst 33342 (Invitrogen, Melbourne, Australia) for 30 min, to elicit nuclear staining. Single images were photographed using a Nikon A1R confocal microscope (Nikon Instruments Inc., NY, USA) under 20× magnification, and 9×9 single images were then automatically stitched together using NIS-Elements AR software (version 4.10 for Windows, Nikon Instruments Inc., NY, USA) to form each whole LV section. The images for infarct area were captured under 40× magnification, and the stitched images were then analysed using Fiji software (version 1.48c for Max OS X, National Institutes of Health, USA). The threshold was set for each image, to enable optimal sensing of red fluorescence intensity above threshold, and the software then automatically quantified these red fluorescent signals.
Assessment of cardiac histology and fibrosis: LV hearts fixed in NBF after 40 min ischaema and 7 d reperfusion were embedded in paraffin by the Alfred Pathology Service (Melbourne, Australia) and sectioned at 4 μm with a Leica 2135 microtome (Leica Microsystems, Wetzlar, Germany). Sections were stained with haematoxylin and eosin (H&E) for assessment of myocardial morphology, or picrosirius red (0.1%, Fluka, Bucks, Switzerland; pH2) for cardiac collagen deposition. […]

| Compound | Plasma level approximately 20 h after the final dose (in words) ([1]; mice subjected to 7 days reperfusion, 50 mg/kg/day i.p.) | Tmax [1] [h] | half-life [1] [h] | Effect on cardiac remodeling 7 days post I-R [2] | Effect on I-R-induced cardiac fibrosis (picrosirius red) ([2]; 7 days reperfusion) | Effect on LV injury score / cell infiltration (H&E) [3] | Effect on LV macrophage (CD68+) signal [3] | Effect on LV neutrophil (Ly-6B.2) signal (in words) ([3]; 50 mg/kg i.p., listed as Cmpd43, 50 mg/kg) | Effect on LV apoptosis in the infarct area ([2]; 7 days reperfusion) | Cardioprotection: Adverse remodelling ([2]; Table 9) | Effect on cardiac inflammation 48 h post I-R ([3]; 50 mg/kg i.p.) | Reduction of LV neutrophil content (Ly-6B.2) [3] | Effect on LV neutrophil (Ly-6B.2) signal (in words) ([3]; 50 mg/kg i.p.) | Cardioprotection: Inflammation ([3]; Table 9) |
| --- | --- | --- | --- | --- | --- | --- | --- | --- | --- | --- | --- | --- | --- | --- |
| CC(C)C1C(NC(=O)Nc2ccc(Cl)cc2)C(=O)N(c2ccccc2)N1C (centres unmarked) [BIDI-002] | micromolar range | 2 | 3.8 | lacked these cardioprotective actions | persist | significantly attenuated | tended to be reduced | absent | – | – | – | – | – | – |
| COc1cccc(Cc2cc(C)nn(C(C)C(=O)Nc3ccc(Br)cc3)c2=O)c1 (centres unmarked) [BIDI-001, N-(4-bromophenyl)-2-[5-(3-methoxybenzyl)-3-methyl-6-oxo-6H-pyridazin-1-yl]-propionamide] | – | 0.5 | 7.6 | reduces cardiac remodeling | absent | not | tended to be reduced | – | significantly attenuated | ↓↓ | reduces cardiac inflammation | ~50% | significantly attenuated the Ly-6B.2 neutrophil signal by almost half | ↓↓ |
| Ac2-26: Annexin-A1 N-terminal peptide, peptide ANX-A1 mimetic (Ac-AMVSEFLKQAWFIENEEQEYVQTVK; UniProt P04083 2-26, looked up, fragment) | – | – | – | – | tended to be inhibited | significantly inhibited | non-significant trend | – | – | – | – | approximately 35% | – | – |
| Cc1cc(Cc2cccnc2)c(=O)n(CC(=O)Nc2ccc(Cl)cc2)n1 [MIPS-0010396] | – | 1 | 11.7 | – | – | – | – | – | – | – | – | – | – | – |
